The values below come from patent US20170076040A1, “SINGLE-CELL ANALYSIS AS A SENSITIVE AND SPECIFIC METHOD FOR EARLY CANCER DETECTION” (THE BOARD OF REGENTS OF THE UNIVERSITY OF TEXAS SYSTEM, priority 2014, published 2017).

Holding throughout (assay type): cell-based
The subject of test [1] is LNCaP cells. As to the kind of experiment: RT-qPCR expression of bimodal genes in LNCaP cells with and without R1881. As to conditions: R1881 1 nM, relative to untreated cells, period of 36 hrs. As for the experimental part: (§1) LNCaP and PC3 cells routinely grown in the laboratory were transfected with SMARTpool siRNAs specifically targeting TGFBR2 and GSK3B, respectively, according to the manufacturer protocol (ThermoFisher). Unspecific scrambled siRNA was used as a negative control. Total RNA were prepared from transfected and control cells or from cells treated with R1881 (1 nM), a synthetic androgen agonist. Reverse transcription was performed using the SuperScript III kit (Invitrogen) on a Veriti 96-well Thermocycler (Applied Biosystems). Relative expression values of genes were shown as the average fold changes (2−ΔΔCt) from three individual experiments using UBB as an internal control and the untreated expression designated as 1.

Test [2] has as its system PC3 cells. As to the kind of experiment: RT-qPCR expression of bimodal genes in PC3 cells with and without R1881. As to conditions: R1881 1 nM, androgen-independent PC3 cells. The procedure:
as §1
(In qPCR the cycle at which signal appears reflects the starting amount.)

The test system of test [3] is PC3 cells. Kind of test: Cell proliferation, migration, and invasion assays (IncuCyte ZOOM), PC3. The settings on record: R1881 1 nM, androgen-independent PC3 cells. As for the experimental part:
(§2) Cells were seeded in triplicate wells of a 96-well plate, and every three hours four independent images were taken per well and quantified for confluence percentage using the IncuCyte ZOOM system. To eliminate variations of cell size and seeding densities, relative cell densities at all time points' values were normalized to the initial time point's average confluence.
(§3) Cell monolayers were seeded to optimized confluent levels in a 96-well ImageLock Plate (Essen BioSciences). The 96-well WoundMaker created equal scratches in every well simultaneously for cell migration and invasion analysis (Essen BioSciences). For invasion assays, BD Matrigel™ Basement Membrane Matrix (BD Biosciences) was used for coating the ImageLock plates, creating a thick layer above the scratched monolayer, 0.1 and 4.0 mg/ml respectively. The IncuCyte ZOOM system's scan mode set to scratch wound and wide mode and captured 1 image every 3 hours. Migration and invasion were analyzed using the relative wound density percent (RWD %) metric.

In test [4] the test system is LNCaP cells. Kind of test: Cell proliferation, migration, and invasion assays (IncuCyte ZOOM), LNCaP. As to conditions: R1881 1 nM (low-dose). As for the experimental part:
as §2, §3

Each structure is given as a SMILES string.

`C[C@]1(O)CC[C@H]2[C@@H]3CCC4=CC(=O)CCC4=C3C=C[C@@]21C` [R1881]: in the test with LNCaP cells [1], the “expression of CDKN1C” value is reported as “further repressed” and the “expression of CXCL6” value was “further repressed”. The gene expression patterns result with PC3 cells [2] is listed as “did not alter”. Further, in the test on PC3 cells [3], the cellular phenotypes result was “did not alter”. Further, in the test on LNCaP cells [4], the cell growth entry is reported as “did not cause noticeable changes”, the invasion result is “did not cause noticeable changes” and the migration entry is “did not cause noticeable changes”.
